From the NIST ThermoML archive (doi:10.1016/j.jct.2012.12.022)
Several values for one entry are separate records, joined by “and”; a condition that tells them apart may be missing. Equal entries are not always repeated.

Test: mn = molality of the nth substance listed, in mol/kg
Details: 101 kPa, Liquid; for speed of sound: Sing-around technique in a fixed-path interferometer; for mass density: Vibrating tube method

CC(=O)NCC(=O)O [N-acetylglycine] + O
Details	mass density, 288.15 K	mass density, 293.15 K	mass density, 298.15 K	mass density, 303.15 K	speed of sound, 288.15 K	speed of sound, 293.15 K	speed of sound, 298.15 K [m/s]	speed of sound, 303.15 K
m1 = 0.085	1001.93 kg/m3	1000.99 kg/m3	999.799 kg/m3	998.366 kg/m3	1470.3 m/s	1485.9 m/s	1499.7	1511.7 m/s
m1 = 0.18	1005.02 kg/m3 and 1004.89 kg/m3	1004.02 kg/m3 and 1003.9 kg/m3	1002.78 kg/m3 and 1002.66 kg/m3	1001.3 kg/m3 and 1001.18 kg/m3	1475.4 m/s and 1470.6 m/s	1490.5 m/s and 1490.7 m/s	1504	1515.6 m/s and 1515.5 m/s

O=C([O-])CC(O)(CC(=O)[O-])C(=O)[O-].[Na+].[Na+].[Na+] [trisodium citrate] + O
Details	mass density, 288.15 K [kg/m3]	mass density, 293.15 K [kg/m3]	mass density, 298.15 K [kg/m3]	mass density, 303.15 K [kg/m3]	speed of sound, 288.15 K [m/s]	speed of sound, 293.15 K [m/s]	speed of sound, 298.15 K [m/s]	speed of sound, 303.15 K [m/s]
m1 = 0.00247	999.597	998.701	997.537	996.131	1467.4	1483	1497.2	1509.6
m1 = 0.04871	1008.4	1007.39	1006.09	1004.6	1479.1	1493.7	1507.2	1519.6
m1 = 0.09738	1017.15	1016.08	1014.65	1013.09	1488.8	1503.5	1516.8	1529
m1 = 0.201	1034.85	1033.45	1031.8	1030.15	1509.2	1523.4	1536.7	1547.8
m1 = 0.2898	1049.56	1047.86	1046.01	1044.34	1526.1	1540	1552.4	1562.6
m1 = 0.3899	1065.78	1063.45	1061.6	1059.7	1545.2	1558.9	1570.2	1579
m1 = 0.4966	1082.16	1079.75	1077.6	1075.59	1565.2	1578	1587.1	1596.3
m1 = 0.6007	1097.37	1094.95	1092.45	1090.27	1583.7	1595	1603.5	1612.2
m1 = 0.7036	1111.65	1109.41	1106.71	1104.4	1601	1611.8	1617.6	1626.5
m1 = 0.7698	1120.84	1118.51	1115.58	1113.15	1612.3	1621.3	1628.1	1635.6
m1 = 0.9013	1138.29	1135.53	1132.31	1129.69	1636.1	1643.5	1646	1652.1

O=C([O-])CC(O)(CC(=O)[O-])C(=O)[O-].[K+].[K+].[K+] [potassium citrate] + O
Details	mass density, 288.15 K [kg/m3]	mass density, 293.15 K [kg/m3]	mass density, 298.15 K [kg/m3]	mass density, 303.15 K [kg/m3]	speed of sound, 288.15 K [m/s]	speed of sound, 293.15 K [m/s]	speed of sound, 298.15 K [m/s]	speed of sound, 303.15 K [m/s]
m1 = 0.00361	999.9	998.989	997.839	996.386	1467.4	1483.1	1497.3	1509.7
m1 = 0.05427	1010.36	1009.25	1007.98	1006.52	1478.4	1493.8	1507.6	1519.7
m1 = 0.09681	1018.59	1017.45	1016.12	1014.61	1487.2	1502.1	1515.8	1527.7
m1 = 0.2001	1038.27	1037.36	1035.59	1034.01	1507	1521.7	1534.6	1545.9
m1 = 0.2914	1055.11	1053.58	1051.92	1050.18	1524.1	1537.8	1550.6	1561.2
m1 = 0.3859	1071.84	1070.62	1069.02	1066.43	1541.9	1555.4	1567.7	1577.7
m1 = 0.4948	1090.12	1088.43	1086.46	1084.57	1561.8	1572.8	1584.8	1595.2
m1 = 0.5799	1104.11	1102.38	1100.2	1098.17	1576.6	1588	1598.8	1609.1
m1 = 0.6983	1122.79	1120.89	1118.45	1116.27	1597.6	1608.2	1618.3	1627.5
m1 = 0.7576	1131.78	1129.85	1127.36	1125.04	1607.6	1618.9	1627.7	1637.2
m1 = 0.8939	1151.83	1149.58	1146.96	1144.2	1630.8	1641.3	1649.4	1657.5
